Reference: patent publication US7176322B2, “Calcium receptor modulating agents” (Amgen Inc., priority 2002, dated 2007)

Molecular target: T1, human parathyroid cell Ca2+ receptor (hPCaR) (Homo sapiens, UniProt P41180)
T1 construct: expressed in transfected cells
T1 sequence (P41180 20-1078): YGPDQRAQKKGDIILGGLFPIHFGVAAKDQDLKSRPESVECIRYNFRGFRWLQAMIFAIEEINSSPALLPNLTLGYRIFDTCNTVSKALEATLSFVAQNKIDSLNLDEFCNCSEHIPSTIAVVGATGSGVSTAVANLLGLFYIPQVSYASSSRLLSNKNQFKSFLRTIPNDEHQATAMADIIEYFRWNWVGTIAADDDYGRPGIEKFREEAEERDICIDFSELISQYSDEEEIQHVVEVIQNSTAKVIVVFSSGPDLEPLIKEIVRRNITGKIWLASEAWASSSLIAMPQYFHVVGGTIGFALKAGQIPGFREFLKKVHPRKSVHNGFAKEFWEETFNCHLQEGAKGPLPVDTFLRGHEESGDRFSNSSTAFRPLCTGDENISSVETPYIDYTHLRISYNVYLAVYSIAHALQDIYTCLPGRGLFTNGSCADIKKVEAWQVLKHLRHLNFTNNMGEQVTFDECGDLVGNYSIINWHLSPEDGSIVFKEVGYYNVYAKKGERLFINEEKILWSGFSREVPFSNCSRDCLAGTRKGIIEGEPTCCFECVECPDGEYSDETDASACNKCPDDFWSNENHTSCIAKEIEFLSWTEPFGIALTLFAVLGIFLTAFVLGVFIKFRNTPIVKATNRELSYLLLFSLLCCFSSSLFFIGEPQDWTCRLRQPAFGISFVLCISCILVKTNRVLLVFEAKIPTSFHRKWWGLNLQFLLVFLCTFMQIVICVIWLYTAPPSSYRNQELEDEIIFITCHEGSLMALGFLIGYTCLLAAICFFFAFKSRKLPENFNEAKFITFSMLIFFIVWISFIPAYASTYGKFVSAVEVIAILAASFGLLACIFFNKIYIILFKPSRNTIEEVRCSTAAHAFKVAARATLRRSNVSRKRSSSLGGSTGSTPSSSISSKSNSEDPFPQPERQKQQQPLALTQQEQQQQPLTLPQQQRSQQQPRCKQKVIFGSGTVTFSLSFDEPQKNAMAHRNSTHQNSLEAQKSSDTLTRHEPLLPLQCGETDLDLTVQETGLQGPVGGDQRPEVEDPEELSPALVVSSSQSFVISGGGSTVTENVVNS
Test: [Ca2+]i measurement (fluo-3 fluorescence) in HEK 293 4.0-7 cells stably transfected with hPCaR
Assay type: cell-based
Settings: HEK 293 4.0-7 cells expressing hPCaR; fluo-3, excitation 485 nm / emission 530 nm
Description: The activities of the compounds of the present invention on calcium receptors were measured. In one embodiment, the measurement was performed in accordance with the method described in Example 4 of Nemeth et al., PCT/US95/13704 (International Publication No. WO96/12697) herein incorporated by reference.
A 4.0-kb NotI-HindIII fragment of the human parathyroid cell Ca^2+ receptor (hPCaR) cDNA was subcloned into the mammalian expression vector pCEP4 (Invitrogen) containing the hygromycin-resistant gene as a selectable marker. This plasmid was transfected into HEK 293 cells by calcium phosphate precipitation. Transfected cells were grown in Dulbecco's modified Eagle's medium containing 10% fetal bovine serum and hygromycin (200 μg/mL). Hygromycin-resistant colonies were subcloned and assayed for hPCaR mRNA by solution hybridization using a ^32P-labeled RNA probe complementary to the (4.0 kb) hPCaR sequence (Garrett, et al., J. Biol. Chem. 270, 12919–12925 (1995)). Clone 7 was used to assess the effects of compounds on [Ca^2+]i. This stably transfected cell line is termed HEK 293 4.0–7. For measurements of [Ca^2+]i, the cells were recovered from tissue culture flasks by brief treatment with 0.02% EDTA and then washed and resuspended in PCB containing 1 mM CaCl2 and 0.1% Bovine Serum Albumin (“BSA”). The cells were loaded with fluo-3 by incubation for 30 min at 37° C., with parathyroid cell buffer (126 mM NaCl, 4 mM KCl, 1 mM MgSO4, 0.7 mM K2HPO4/KH2PO4, 20 mM HEPES.NaOH (pH 7.45)) containing 0.5% BSA in 1 mM CaCl2 and 2 μM fluo-3 acetoxymethyl ester. The cells were subsequently washed, each test compound was added to the cells and the fluorescence was recorded by using excitation and emission wavelengths of 485 and 530 nm, respectively.

| EC50 [µM] | Structure (SMILES) |
| --- | --- |
| ≤ 10 | CCn1c2c(c3cc(CN[C@H](C)c4ccccc4)ccc31)CN(C)CC2 [Example 13] |
| ≤ 10 | C[C@@H](NCc1ccc2c(c1)ncn2C)c1ccccc1 [Example 12, (R)-N-(1-(Phenyl)ethyl)-N-((1-methylbenzimidazol-5-yl)methyl)amine] |
| ≤ 10 | CCn1nc2ccc(CN[C@H](C)c3ccccc3)cc2n1 [Example 6, (R)-N-(1-(Phenyl)ethyl)-N-(2′-ethyl-benzotriazol-5-ylmethyl)amine] |
| ≤ 10 | CCn1nc2ccc(CN[C@H](C)c3cccc4ccccc34)cc2n1 [Example 4, (R)-N-(1-(1-Naphthyl)ethyl)-N-(2′-ethyl-benzotriazol-5-ylmethyl)amine] |
| ≤ 10 | C[C@@H](NCc1ccc2[nH]ccc2c1)c1cccc2ccccc12 [Example 25, (1R)-N-(1H-indol-5-ylmethyl)-1-(1-naphthalenyl)ethanamine] |
| ≤ 10 | CCn1c2c(c3cc(CN[C@H](C)c4cccc(OC)c4)ccc31)CN(C)CC2 [Example 14] |
| ≤ 10 | C[C@@H](NCc1ccc2c(c1)c1ccccc1n2CCCN(C)C)c1cccc2ccccc12 [Example 24] |
| ≤ 10 | CCn1c2ccc(CN[C@H](C)c3cccc(OC)c3)cc2c2cc(OC)ccc21 [Example 8, (R)-N-(1-(3-Methoxyphenyl)ethyl)-N-(9-ethyl-6-methoxy-3-carbazolylmethyl)amine] |
| ≤ 10 | CCn1c2c(c3cc(CN[C@H](C)c4cccc(OC)c4)ccc31)COCC2 [Example 20] |
| ≤ 10 | CCn1c2c(c3cc(CN[C@H](C)c4ccccc4)ccc31)COCC2 [Example 19] |
| ≤ 10 | CCn1c2ccccc2c2cc(CN[C@H](C)c3cccc4ccccc34)ccc21 [(R)-N-(1-(1-Naphthyl)ethyl)-N-(9-ethyl-3-carbazolylmethyl)amine] |
| ≤ 10 | CCn1c2c(c3cc(CN[C@H](C)c4cccc5ccccc45)ccc31)COCC2 [Example 21] |
| ≤ 10 | C[C@@H](NCc1ccc2c(c1)ncn2C)c1cccc2ccccc12 [Example 11, (R)-N-(1-(1-Naphthyl)ethyl)-N-((1-methylbenzimidazol-5-yl)methyl)amine] |
| ≤ 10 | CCn1nc2ccc(CN[C@H](C)c3cccc(OC)c3)cc2n1 [Example 5, (R)-N-(1-(3-Methoxyphenyl)ethyl)-N-(2′-ethyl-benzotriazol-5-ylmethyl)amine] |
| ≤ 10 | CCn1ccc2cc(CN[C@H](C)c3cccc4ccccc34)ccc21 [Example 18, (R)-N-(1-(1-Naphthyl)ethyl)-N-((1-ethylindole-5-yl)methyl)amine] |
| ≤ 10 | CCn1cc(-c2ccccc2)c2cc(CN[C@H](C)c3ccccc3)ccc21 [Example 28, (1R)-N-((1-ethyl-3-phenyl-1H-indol-5-yl)methyl)-1-phenylethanamine] |
| ≤ 10 | CCn1c2ccccc2c2cc(CN[C@H](C)c3cccc(OC)c3)ccc21 [(R)-N-(1-(3-Methoxyphenyl)ethyl)-N-(9-ethyl-3-carbazolylmethyl)amine] |
| ≤ 10 | CCn1c2ccccc2c2cc(CN[C@H](C)c3ccccc3)ccc21 [Example 17, (R)-N-(1-(Phenyl)ethyl)-N-(9-ethyl-3-carbazolylmethyl)amine] |
| ≤ 10 | CCn1c2c(c3cc(CN[C@H](C)c4ccccc4)ccc31)CCC2 [Example 10] |
| ≤ 10 | CCn1cc(-c2ccc(OC(F)(F)F)cc2)c2cc(CN[C@H](C)c3ccccc3)ccc21 [Example 29, (1R)-N-((1-ethyl-3-(4-((trifluoromethyl)oxy)phenyl)-1H-indol-5-yl)methyl)-1-phenylethanamine] |
